Like-named read-outs stand apart in the source and are kept apart here.
Tests used:
[1] = test system: Wilson strain house flies; format: in vivo, Wilson strain (susceptible); conditions: for Contact Synergistic Ratio, Pyrolan: LC50 pyrolan alone / LC50 with synergist
Procedure: The required solutions of the insecticide and of the synergist compound were prepared in acetone at a concentration of 1 milligram per milliliter. One-pint wide mouth glass jars were coated with the appropriate insecticide-synergist combination by rolling the jars containing aliquots of the appropriate solutions diluted to three milliliters with acetone to deposit, by evaporation, a film of the test materials. The flies were transferred under carbon dioxide anesthesia and held in the jar at room temperature. Perforated aluminum foil was used to cover the jars and to hold cotton saturated with 10% sugar solution. Counts were made at intervals, but the recorded mortality was based on 24-hour kill, rather than knockdown. All prostrate non-moving flies were considered dead. A determination was then made of the contact synergistic ratio [SR], which is the ratio of the LC50 of insecticide alone to the LC50 of the insecticide when applied together with the synergist. The LC50 of the insecticide was estimated from a log-probit plot of percent kill versus dosage. […] The LC50 of the combination of insecticide and synergist was determined at a synergist to insecticide parts by weight ratio of five to one.

[2] = test system: Swiss albino, white male mice; assay: acute toxicity and synergism of acute toxicity in mice; format: in vivo; conditions: 48 hours, eight mice
Procedure: To determine the acute toxicity of dimetilan alone, eight dosage levels of Dimetilan, ranging from 4 to 32 mg per kg were applied to eight, Swiss, albino, white, male mice per dosage level. The mice weighed approximately 23 to 27 grams and were five to six weeks old. The Dimetilan was administered intraperitoneally in 0.1 ml of corn oil one hour after the administration of the same dose of corn oil alone.
To determine the acute toxicity of the synergist alone, various synergists were administered intraperitoneally at a dose of 1000 mg/kg to each of a group of eight mice. The number of animals dead at the end of 72 hours is reported in the left hand column of Table XXXXVI.
The synergism of the acute toxicity of Dimetilan by various synergists was determined by tests on Swiss albino, white male mice aged five to six weeks and weighing 23 to 27 grams. The synergists and insecticides were dissolved in corn oil and the drugs were dissolved in distilled water. All compounds were administered intraperitoneally by injection in the lower quadrent of the abdomen. The synergist was administered in 0.1 ml of corn oil one hour prior to administration of the insecticide. Eight mice were treated, per dosage, with each synergist. The mice were watched for a minimum of 6 hours while held in a glass jar with bedding individually after intraperitoneal injection of the test solutions. Lethality was noted, the animals were weighed and transferred in cages, and food and water were supplied. Control mice were given 0.1 ml of corn oil at the time of administration of the synergist to the test mice and 0.1 ml corn oil plus Dimetilan at the time of administration of the insecticide to the test mice.
By the same procedure, the synergism of acute toxicity of GS 13005, Secobarbital and 6-dimethylamino-4,4-diphenyl-3-heptanone [Methadone] was determined.

[3] = test system: Rutgers A strain house flies; assay: topical application, percent kill after 24 hours, resistant Rutgers A strain; format: in vivo, female); conditions: for percent kill after 24 hours, with GS 13005: GS 13005 1.0 + synergist 5.0 μg/fly; for percent kill after 24 hours, with Mobam: Mobam 0.40 + synergist 2.0 μg/fly; for percent kill after 24 hours, synergist alone: insecticide 0, synergist 5.0 μg/fly
Procedure: (§1) In Table IX, and in the tables following it, the doses of topically applied insecticides and of synergists unless otherwise noted are expressed as micrograms per fly (μg/fly).
(§2) The synergistic effect of O-(2-propynyl) oximes with mobam was determined from topical application tests on susceptible, female, IN/WHO strain house flies and from tests on resistant, female, Rutgers A strain house flies. The synergist and insecticide were dissolved in ACS Grade acetone in such quantities that a 1.0 μ liter volume applied to the thorax of 3-to-5 day old CO2 -anesthetized female adult house flies contained the desired dosage. After being treated, the flies were confined, 10 to a plaster petri dish, with 3-5 dishes/treament, and held for 24-hr. observation of mortality. Reconstituted skim milk on cotton dental wicks was provided during the holding period. The percent kills after 24 hours are shown in Table X for the IN/WHO strain and Table XI for the Rutgers A strain.
(§3) The synergistic effect of benzyl 2-propynyl ethers with mobam was determined from topical application tests on IN/WHO and Rutgers A strain houseflies, following the procedure of Example 5. The percent kills after 24 hours are shown in Table XIV for the IN/WHO strain and in Table XV for the Rutgers A strain.
The synergistic effect with Diazinon of compounds I-B, I-D, I-F, I-G, I-H and I-I, identified in Tables I and Ia, was determined from topical application tests on IN/WHO strain houseflies and on Rutgers A strain houseflies by the procedure of Example 5. The percent kills after 24 hours are shown in Table XXV for the IN/WHO strain and Table XXVI for the Rutgers A strain.
(§4) The synergistic effect with GS 13005 of compounds I-A, I-B, I-D, I-E, I-F, I-G and I-I was determined from topical application tests to IN/WHO strain, Rutgers A strain and polyvalent CH strain houseflies using the procedures of Example 5. The percent kills of the IN/WHO strain flies after 24 hours are shown in Table XXVIII; of the Rutgers A strain, in Table XXIX; and of the polyvalent CH strain, in Table XXX. The doses of insecticide alone to the CH strain files caused 10-40% mortality.
The synergistic effect with Diazinon and GS 13005 of various of the benzyl 2-propynyl ethers identified in Tables II and IIa was determined by topical application tests on IN/WHO strain, and Rutgers A strain and polyvalent, resistant, CH strain houseflies using the procedures of Example 5. The percent kills after 24 hours of IN/WHO strain flies are shown in Table XXXI; of Rutgers A strain flies, in Table XXXII; and of CH strain flies, in Table XXXIII. The doses of insecticide alone to the CH strain flies caused 10-40% mortality.
(§5) The synergistic effect on IN/WHO strain flies and Rutgers A strain flies of compound IV-C with GS 13005 and with Diazinon was determined by the topical application procedure of Example 5. The percent kills of IN/WHO strain flies after 24 hours are shown in Tables XXXVI and XXXVII; the percent kills of Rutgers A strain flies are shown in Tables XXXVIII and XXXIX.

male mice = assay: extension of sleeping time of depressant drugs by synergists; format: in vivo, male mice (Swiss albino white); conditions: for Mean Sleeping Time, Noludar / Relative Sleeping Time, Noludar: Noludar 110 mg/kg; for Relative Sleeping Time, Noludar / Relative Sleeping Time, Secobarbital: treated/control; for Mean Sleeping Time, Secobarbital / Relative Sleeping Time, Secobarbital: Secobarbital 37 mg/kg
Procedure: The selectivity of the synergist compounds of this invention is illustrated by the results of sleeping-time extension tests and of acute toxicity tests on Swiss albino white male mice.
The effect of various synergist compounds on sleeping time of sodium secobarbital [Secobarbital] and of 3,3-diethyl-5-methyl-2,4-dioxypiperidine [Noludar] was determined by administering the drug, with and without synergist, to approximately 38-day old male mice weighing from 25 to 30 grams. Synergists were administered in each of two doses, 74.0 mg/kg (dilution being 2.0 mg/0.1 ml corn oil), and 110.0 mg/kg (dilution 3.0 mg/0.1 ml oil). Secobarbital was administered at a dose of 37.0 mg/kg (dilution 1.0 mg/0.1 ml water). Noludar was administered at a dose of 110.0 mg/kg (dilution 3.0 mg/0.1 ml water). The synergist was administered one hour prior to administration of the Secobarbital or Noludar. Secobarbital and Noludar sleeping times were obtained for both the control (drug only) and the treated (synergist plus drug) mice by noting the time lapse between the administration of the drug and the recovery of the righting reflex, i.e. when the animal regains conciousness and can walk up an inclined wooden tray with coordination. The relative sleeping time (R.S.) was noted. The R.S. is the extended sleeping time in the treated mice (synergist plus drug) divided by the sleeping time in the control mice (drug only). The mean sleeping time for the treated mice and the R.S. are shown on Table XXXXIV for various synergist compounds.

[4] = test system: IN/WHO strain house flies; assay: topical application, percent kill after 24 hours, susceptible IN/WHO strain; format: in vivo, female); conditions: for percent kill after 24 hours, with GS 13005: GS 13005 0.10 + synergist 0.50 μg/fly; for percent kill after 24 hours, with Mobam: Mobam 0.20 + synergist 1 μg/fly; for percent kill after 24 hours, synergist alone (GS 13005 part of Table XXXI): GS 13005 0, synergist 1 μg/fly; for percent kill after 24 hours, synergist alone: insecticide 0, synergist 1 μg/fly
Procedure: as §1, §2, §3
The effects of varying the insecticide dose and the synergist-insecticide ratio are further illustrated, with synergist compounds II-D, II-E, II-F and Mobam insecticide, in Tables XVI, XVII and XVIII. […]
The effect on IN/WHO flies of synergist compound IV-C, identified in Table IV, with mobam was determined by the topical application procedure of Example 5. […]
as §4
The synergistic effect with Diazinon and GS 13005 of various of the benzyl 2-propynyl ethers identified in Tables II and IIa was determined by topical application tests on IN/WHO strain, and Rutgers A strain and polyvalent, resistant, CH strain houseflies using the procedures of Example 5. The percent kills after 24 hours of IN/WHO strain flies are shown in Table XXXI; of Rutgers A strain flies, in Table XXXII; and of CH strain flies, in Table XXXIII. The doses of insecticide alone to the CH strain flies caused 10-40% mortality. […]
as §5

[5] = synergist to insecticide 5:1 by weight
[6] = Dimetilan 8 + synergist 80 mg/kg i.p.
[7] = Dimetilan 8 + synergist 240 mg/kg i.p.
[8] = synergist 110 mg/kg one hour prior
[9] = synergist 74 mg/kg one hour prior

| SMILES | Contact Synergistic Ratio, Pyrolan [1, 5] | Contact Synergistic Ratio, Carbaryl ([1]; in vivo) | number of mice dead, with Dimetilan [2, 6] | number of mice dead, with Dimetilan [2, 7] | percent kill after 24 hours, with GS 13005 [3] [%] | Mean Sleeping Time, Noludar (male mice; [8]) [min] | Relative Sleeping Time, Noludar (male mice; synergist 110 mg/kg) | Mean Sleeping Time, Secobarbital (male mice; [9]) [min] | Relative Sleeping Time, Secobarbital (male mice; synergist 74 mg/kg) | Mean Sleeping Time, Secobarbital (male mice; [8]) [min] | Relative Sleeping Time, Secobarbital (male mice; synergist 110 mg/kg) | percent kill after 24 hours, with GS 13005 [4] [%] | percent kill after 24 hours, with Mobam [4] [%] | Contact Synergistic Ratio, Carbaryl ([1]; LC50 carbaryl alone / LC50 with synergist, synergist to insecticide 5:1 by weight) | percent kill after 24 hours, with Mobam [3] [%] | percent kill after 24 hours, synergist alone [3] [%] | percent kill after 24 hours, synergist alone (GS 13005 part of Table XXXI) [4] [%] | percent kill after 24 hours, synergist alone [4] [%] |
| --- | --- | --- | --- | --- | --- | --- | --- | --- | --- | --- | --- | --- | --- | --- | --- | --- | --- | --- |
| C#CCn1nc(Cl)c2ccc([N+](=O)[O-])cc21 [III-C, N-(2-propynyl)-3-chloro-6-nitroindazole] | 10 | 53 |  |  |  |  |  |  |  |  |  |  |  |  |  |  |  |  |
| C#CCOCc1ccc(Cl)cc1 [II-A] | 7 | 50 |  |  |  |  |  |  |  |  |  |  |  |  |  |  |  |  |
| C#CCOCc1ccc([N+](=O)[O-])cc1Cl [II-N] |  |  | 0 | 4 | 60 | 58 | 1.9 | 20 | 1.0 | 39 | 1.7 | 84 | 97 |  |  |  |  |  |
| C#CCOCc1ccc2c(c1)OCO2 [II-G] | 15 |  |  |  |  |  |  |  |  |  |  |  |  | 100 |  |  |  |  |
| C#CCOCc1ccc(Cl)cc1Cl [II-B] | 15 | 50 |  |  |  |  |  |  |  |  |  |  |  |  |  |  |  |  |
| C#CCOCc1cccc([N+](=O)[O-])c1Cl [II-L] |  |  | 0 | 5 | 83 | 56 | 1.8 | 31 | 1.0 | 42 | 1.8 | 97 | 89 |  | 52 | 0 | 3 | 3 |
| C#CCOCc1ccc(Cl)c([N+](=O)[O-])c1 [II-M] |  |  | 0 | 3 | 63 | 47 | 2.1 | 29 | 1.0 | 47 | 2 | 79 | 90 |  |  | 0 | 10 | 10 |
| C#CCOCc1cccc(Cl)c1[N+](=O)[O-] [II-I] |  |  | 0 | 3 | 83 | 56 | 1.8 | 31 | 1.2 | 32 | 1.3 | 99 | 97 |  | 37 | 3 | 7 | 7 |

Source: US3954793A, “1-(2-Propynyl)-1 H-indazole compounds” (priority 1973, dated 1976)
